In the supplement of paper PMC10307832:

Tests used:
Experiment in all cases: relative viability (nuclei count vs DMSO), 5 days (fraction); higher = more cells survive
SW 900 = test system: SW 900
Procedure, shortened: (§1)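 Relative viability divides the nuclei count in treated wells by that in vehicle wells. Lung cancer cell lines were seeded in 1536-well plates, dosed by pin tool the next day, and fixed and stained after 5 days in one step with final 0.05% Triton X-100, 1% formaldehyde and 1 ug/ml Hoechst. Dosing was a single drug or a fixed anchor-drug dose plus five library-drug doses (not always all listed) in √10 steps, and values are medians of duplicate plates imaged at 4×.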

H3255 = test system: H3255
Procedure, shortened: as §1

LXF-289 = test system: LXF-289
Procedure, shortened: as §1

NCI-H441 = test system: NCI-H441
Procedure, shortened: as §1

NCI-H1734 = test system: NCI-H1734
Procedure, shortened: as §1

ChaGo-K-1 = test system: ChaGo-K-1
Procedure, shortened: as §1

NCI-H522 = test system: NCI-H522
Procedure, shortened: as §1

NCI-H2170 = test system: NCI-H2170
Procedure, shortened: as §1

CAL-12T = test system: CAL-12T
Procedure, shortened: as §1

HOP-62 = test system: HOP-62
Procedure, shortened: as §1

NCI-H647 = test system: NCI-H647
Procedure, shortened: as §1

LK-2 = test system: LK-2
Procedure, shortened: as §1

NCI-H322M = test system: NCI-H322M
Procedure, shortened: as §1

NCI-H2087 = test system: NCI-H2087
Procedure, shortened: as §1

NCI-H1755 = test system: NCI-H1755
Procedure, shortened: as §1

ABC-1 = test system: ABC-1
Procedure, shortened: as §1

EMC-BAC-2 = test system: EMC-BAC-2
Procedure, shortened: as §1

PC-14 = test system: PC-14
Procedure, shortened: as §1

NCI-H596 = test system: NCI-H596
Procedure, shortened: as §1

201T = test system: 201T
Procedure, shortened: as §1

NCI-H3122 = test system: NCI-H3122
Procedure, shortened: as §1

NCI-H2126 = test system: NCI-H2126
Procedure, shortened: as §1

NCI-H1651 = test system: NCI-H1651
Procedure, shortened: as §1

CCCCCCCCCCCC1=C(O)C(=O)C=C(O)C1=O [Embelin] + NC(=O)Nc1cc(-c2cccc(F)c2)sc1C(=O)N[C@H]1CCCNC1 [AZD7762] (partner 0.2 µM)
relative viability (SW 900; first compound 0.08 µM): 0.556
relative viability (SW 900; first compound 0.8 µM): 0.624
relative viability (SW 900; first compound 2.53 µM): 0.502
relative viability (SW 900; first compound 8 µM): 0.628
relative viability (H3255; first compound 0.08 µM): 0.826
relative viability (H3255; first compound 0.8 µM): 0.975
relative viability (H3255; first compound 2.53 µM): 0.894
relative viability (H3255; first compound 8 µM): 0.913
relative viability (LXF-289; first compound 0.08 µM): 1.17
relative viability (LXF-289; first compound 0.8 µM): 1.16
relative viability (LXF-289; first compound 2.53 µM): 1.14
relative viability (LXF-289; first compound 8 µM): 1.2
relative viability (NCI-H441; first compound 0.08 µM): 1.09
relative viability (NCI-H441; first compound 0.8 µM): 1.24
relative viability (NCI-H441; first compound 2.53 µM): 1.18
relative viability (NCI-H441; first compound 8 µM): 1.36
relative viability (NCI-H1734; first compound 0.08 µM): 0.587
relative viability (NCI-H1734; first compound 0.8 µM): 0.692
relative viability (NCI-H1734; first compound 2.53 µM): 0.593
relative viability (NCI-H1734; first compound 8 µM): 0.622
relative viability (ChaGo-K-1; first compound 0.08 µM): 0.861
relative viability (ChaGo-K-1; first compound 0.8 µM): 0.922
relative viability (ChaGo-K-1; first compound 2.53 µM): 0.922
relative viability (ChaGo-K-1; first compound 8 µM): 0.874
relative viability (NCI-H522; first compound 0.08 µM): 0.865
relative viability (NCI-H522; first compound 0.8 µM): 1.05
relative viability (NCI-H522; first compound 2.53 µM): 0.91
relative viability (NCI-H522; first compound 8 µM): 0.756
relative viability (NCI-H2170; first compound 0.08 µM): 0.906
relative viability (NCI-H2170; first compound 0.8 µM): 0.958
relative viability (NCI-H2170; first compound 2.53 µM): 1.06
relative viability (NCI-H2170; first compound 8 µM): 0.914
relative viability (CAL-12T; first compound 0.08 µM): 0.641
relative viability (CAL-12T; first compound 0.8 µM): 0.697
relative viability (CAL-12T; first compound 2.53 µM): 0.61
relative viability (CAL-12T; first compound 8 µM): 0.676
relative viability (HOP-62; first compound 0.08 µM): 0.384
relative viability (HOP-62; first compound 0.8 µM): 0.568
relative viability (HOP-62; first compound 2.53 µM): 0.734
relative viability (HOP-62; first compound 8 µM): 0.363
relative viability (NCI-H647; first compound 0.08 µM): 0.379
relative viability (NCI-H647; first compound 0.8 µM): 0.674
relative viability (NCI-H647; first compound 2.53 µM): 0.365
relative viability (NCI-H647; first compound 8 µM): 0.309
relative viability (LK-2; first compound 0.08 µM): 0.497
relative viability (LK-2; first compound 0.8 µM): 0.543
relative viability (LK-2; first compound 2.53 µM): 0.497
relative viability (LK-2; first compound 8 µM): 0.351
relative viability (NCI-H322M; first compound 0.08 µM): 0.585
relative viability (NCI-H322M; first compound 0.8 µM): 0.632
relative viability (NCI-H322M; first compound 2.53 µM): 0.568
relative viability (NCI-H322M; first compound 8 µM): 0.472
relative viability (NCI-H2087; first compound 0.08 µM): 1.34
relative viability (NCI-H2087; first compound 0.8 µM): 1.37
relative viability (NCI-H2087; first compound 2.53 µM): 1.2
relative viability (NCI-H2087; first compound 8 µM): 1.28
relative viability (NCI-H1755; first compound 0.08 µM): 0.432
relative viability (NCI-H1755; first compound 0.8 µM): 0.477
relative viability (NCI-H1755; first compound 2.53 µM): 0.45
relative viability (NCI-H1755; first compound 8 µM): 0.429
relative viability (ABC-1; first compound 0.08 µM): 0.701
relative viability (ABC-1; first compound 0.8 µM): 1.01
relative viability (ABC-1; first compound 2.53 µM): 0.875
relative viability (ABC-1; first compound 8 µM): 0.856
relative viability (EMC-BAC-2; first compound 0.08 µM): 1.12
relative viability (EMC-BAC-2; first compound 0.8 µM): 1.22
relative viability (EMC-BAC-2; first compound 2.53 µM): 1.13
relative viability (EMC-BAC-2; first compound 8 µM): 1.06
relative viability (PC-14; first compound 0.08 µM): 0.339
relative viability (PC-14; first compound 0.8 µM): 0.419
relative viability (PC-14; first compound 2.53 µM): 0.345
relative viability (PC-14; first compound 8 µM): 0.258
relative viability (NCI-H596; first compound 0.08 µM): 1.08
relative viability (NCI-H596; first compound 0.8 µM): 1.27
relative viability (NCI-H596; first compound 2.53 µM): 1.26
relative viability (NCI-H596; first compound 8 µM): 1.01
relative viability (201T; first compound 0.08 µM): 0.713
relative viability (201T; first compound 0.8 µM): 0.634
relative viability (201T; first compound 2.53 µM): 0.67
relative viability (201T; first compound 8 µM): 0.61
relative viability (NCI-H3122; first compound 0.08 µM): 0.946
relative viability (NCI-H3122; first compound 0.8 µM): 1.06
relative viability (NCI-H3122; first compound 2.53 µM): 1.06
relative viability (NCI-H3122; first compound 8 µM): 1.01
relative viability (NCI-H2126; first compound 0.08 µM): 0.936
relative viability (NCI-H2126; first compound 0.8 µM): 1.08
relative viability (NCI-H2126; first compound 2.53 µM): 1.12
relative viability (NCI-H2126; first compound 8 µM): 1
relative viability (NCI-H1651; first compound 0.08 µM): 0.452
relative viability (NCI-H1651; first compound 0.8 µM): 0.549
relative viability (NCI-H1651; first compound 2.53 µM): 0.527
relative viability (NCI-H1651; first compound 8 µM): 0.46
